Entries after “also recorded” stand apart in the source; their conditions may differ. Non-standard residues stand in square brackets, D forms with d. No end group written: not given here. pS = N[C@@H](COP(=O)(O)O)C(=O)O

For one assay, the system named is BAD phosphorylation. Kind of assay: BAD phosphorylation (test system not specified). From the text:
Similarly, inhibitors and activators of protein kinases are known and can be used as therapeutic agents (see, e.g., Levitski, 1994). […] It is preferred that the inhibitors and activators have selective actions on the kinase(s) acting upon the BAD, or fragment of BAD, of the present invention. […] Alternatively, in vivo testing could be done using a number of experimental approaches, and one example, as reported herein, utilizes the endogenous phosphorylation of BAD upon re-addition of IL-3 after withdrawal for two hours. Such standard testing systems could be used to test candidate compounds as inhibitors or activators of BAD phosphorylation.

The test system of assay [1] is BAD Ser155 phosphorylation in HeLa cells. Kind of assay: BAD phosphorylation in HeLa cells (western blot band-shift / anti-phospho-Ser155 antibody). Format: cell-based, human. As to conditions: for induction of band-shift (Ser155 phosphorylation) of HA-BAD S112A/S136A: transfected HeLa cells treated with the agent; for Ser155 phosphorylation following growth factor stimulation: results not shown. As for the experimental part: A mammalian expression vector encoding mutant HA-BAD S155A, derived from the shorter murine BAD of SEQ ID NO:3, was constructed. HA-BAD S155A has an amino acid sequence wherein the serine at a position corresponding to Ser155 is substituted with alanine. A western blot was performed on WCL prepared from cells expressing the shorter murine BAD (SEQ ID NO:3), HA-BAD S112A, HA-BAD S136A, or HA-BAD S155A, and probed with anti-HA antibody.
A western blot analysis, probed with anti-HA antibody, was performed on lysates produced from the Forskolin treated and untreated (control) cells to determine whether Forskolin could induce the phosphorylation BAD or mutant BAD.
HeLa cells transiently expressing HA-BAD, HA-BAD S155A, HA-BAD S112A/S136A, or HA-BAD S112A/S136A/S155A were treated with Forskolin or a buffer control.
The HA-BAD S112A/S136A double mutant was transiently expressed in HeLa cells, and transfected cell cultures were treated with each of the GPCR ligands, individually and as a group. A western blot analysis, probed with anti-HA antibody, was performed on lysates produced from the treated and untreated (negative control) cells. […] Forskolin (FK) and no treatment (−) were positive and negative controls, respectively (FIG. 6(a), […], respectively).
Non-transfected HeLa cells were treated with Forskolin or L-epinephrine, followed by western blot analysis of cell lysates using anti-BAD antibodies.
Transformants were treated with L-epinephrine, then lysed and subjected to anti-HA western blot analysis.
(§1) To further test whether phosphorylation of Ser155 is dependent on the PI 3-kinase/Akt pathway, HeLa cells were transfected with the mutant HA-BAD S155A and pretreated with Wortmannin, an inhibitor of PI 3-kinase. These cells were then stimulated with epidermal growth factor (EGF), lysed and analyzed by western blot analysis.
For immunoprecipitation of all HA-BAD species, 1 μg of the anti-HA antibody was added to the cell lysates, and incubated at 4° C. for one hour. Protein G agarose (Pierce) was then added (50 μl/fraction of 50% slurry) and followed by a one hour incubation at 4° C. Beads were washed with RIPA buffer, boiled in loading buffer (2% SDS, 10% glycerol, 5% β-ME, 60 mM Tris, pH 6.8, 0.002% Bromophenol Blue) and loaded onto polyacrylamide gels. After electrophoresis, proteins were transferred to nitrocellulose membranes, and blots blocked in western wash buffer (40 mM Tris, pH 8.0, 150 mM NaCl, 0.2% NP-40) with 5% BSA for one hour at room temperature. Blots were incubated with primary antibody diluted in western wash buffer with 3% BSA at room temperature for 1–2 hours, washed with western wash buffer and incubated with secondary HRP-coupled antibody diluted in western wash buffer with 1.5% BSA, and washed extensively. Polypeptides were detected with the ECL chemiluminescence according to the manufacturers instructions (Amersham).
A general note: A western blot detects proteins with antibodies after separation by electrophoresis.

Another assay has as its target GST-Bcl-XL (Homo sapiens, UniProt Q07817). Kind of assay: In vitro competition binding assay (BH3 peptides blocking GST-Bcl-XL binding to immobilized BAK BH3 peptide, ELISA). As for the experimental part:
FIG. 3(B) is a graphical representation of the results of an in vitro competition binding assay. Recombinant GST-Bcl-XL was incubated with a BAD BH3 peptide (residues 143–168 of SEQ ID NO: 2) phosphorylated on Ser155 (“BAD BH3-P”), a BAD BH3 peptide (residues 143–168 of SEQ ID NO: 2) unphosphorylated on Ser155 (“BAD BH3”), or a BAK BH3 peptide (residues 71–89; residues 1–20 of SEQ ID NO: 5) as a positive control, at the indicated concentrations. The reaction mixtures were then added to microtiter plates pre-coated with BAK BH3 peptide. The amount of bound GST-Bcl-XL was determined by ELISA using an anti-GST primary antibody and a horse-radish peroxidase-conjugated anti-mouse IgG secondary antibody with ABTS as substrate.
Whether the addition of a phosphate group on BAD Ser155 interferes with this interaction was tested by measuring the affinity of BAD BH3 peptides for Bcl-XL in an in vitro competition binding assay. Synthetic BAD BH3 peptide encompassing BAD residues 143 to 168, was incubated with recombinant GST-Bcl-XL at the indicated concentrations (FIG. 3(b)). The affinity of the BAD BH3 peptide for GST-Bcl-XL was measured as the ability of the peptide to block subsequent binding of GST-Bcl-XL to a BAK BH3 peptide when the reacted mixture was added to a microtiter plate pre-immobilized with a BAK BH3 peptide, as detected by ELISA (triplicate samples, +/−standard deviation). […]
A general note: ELISA stands for enzyme-linked immunosorbent assay.

Assay [2] deals with BAD phosphorylation in Rat-1 cells. The assay can be described thus: BAD phosphorylation in Rat-1 cells (western blot band-shift / anti-phospho-Ser155 antibody). It is filed as cell-based. As to conditions: for induction of band-shift of HA-BAD S112A/S136A: transfected Rat-1 fibroblasts. The text has this: In the absence of a phospho-Ser155 antibody, it was difficult to conclude that this band-shift was solely the result of the phosphorylation of Ser155. However, it appeared that this response was at least primarily due to the phosphorylation at this site. This was based on the combined evidence, both in vitro and in cells, as described above (FIGS. 1, 2 and 4–7) and the fact that Ser155 is the only site of BAD homologous to the substrate consensus sequence of PKA.
Whether the BAD Ser155 kinase, PKA, is also activated by growth factors, and if so, whether such activation is PI 3-kinase dependent, was investigated. […] Cell lysates were analyzed via western blot analysis, probed using anti-HA antibody. […] However, the magnitude of phosphorylation was weaker and may be more transient, than the effect of Forskolin (FIG. 9(a)). Of note, Ser155 phosphorylation following IGF-1, EGF, or PDGF stimulation was not detected in HeLa cells (results not shown).
It has been documented that Akt kinase activity, the serine kinase shown to phosphorylate BAD Ser136, is induced by growth factors and is dependent on PI 3-kinase activation (Datta et al., 1997; del Peso et al., 1997). In related experiments, Rat-1 cells were pretreated with either the PKA inhibitor H89, or the PI 3-kinase inhibitor Wortmannin (available, e.g., from Sigma, St. Louis, Mo.), followed by stimulation with Forskolin (also available from Sigma) or PDGF. […] This indicated the shift was PKA dependent (FIG. 9(b), lower panel, compare lanes 5 and 6). […] It therefore presumably had no effect on PDGF-induced activation of PI 3-kinase.
To examine whether endogenous BAD is phosphorylated on Ser155 in response to growth factors, serum-starved Rat-1 fibroblasts were stimulated with PDGF. Whole cell lysates were prepared and endogenous BAD was immunoprecipitated. Proteins were separated by SDS-PAGE, and Ser155 phosphorylation was analyzed by Western blot using the phospho-S155 antibody and an anti-BAD antibody.

A further assay deals with Akt. Kind of assay: Akt activation in HeLa cells (anti-phospho-S473 Akt western blot). Conditions: serum-starved HeLa cells, pretreatment then EGF. It is filed as cell-based, human.
From the text: FIG. 10(B) is a series of western blots. Serum-starved HeLa cells expressing HA-BAD S155A, were pretreated with a buffer control (lanes 1 and 2), AG1478 (“AG”) (lane 3), Wortmannin (“Wm”) (lane 4), or H89 (lane 5). The cell cultures were then stimulated with a buffer control (lane 1) or EGF (lanes 2–5). Whole cell lysates were made from the cultures and the proteins were separated by SDS-PAGE. Blots were probed with either an anti-activated EGF receptor antibody (“activated EGFR”) (panel A), an anti-phospho-S473 Akt antibody (“pS473 Akt”) (panel B), or an anti-phospho-S155 BAD antibody (“pS155 BAD”) (panel D). Reblots were probed with either an anti-Akt antibody (“Akt”) (panel C) or an anti-HA BAD antibody (“HA-BAD”) (panel E).
as §1

Chain of GST-Bcl-XL (Q07817 whole entry, the tested form may be a part): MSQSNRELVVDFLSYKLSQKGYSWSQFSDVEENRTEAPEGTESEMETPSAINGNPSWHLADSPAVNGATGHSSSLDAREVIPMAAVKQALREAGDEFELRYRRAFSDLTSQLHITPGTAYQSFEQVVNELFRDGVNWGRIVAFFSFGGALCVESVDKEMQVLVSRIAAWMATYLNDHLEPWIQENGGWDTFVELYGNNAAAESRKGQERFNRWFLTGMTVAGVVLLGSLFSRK

With `CN[C@@H]1C[C@H]2O[C@@](C)([C@@H]1OC)n1c3ccccc3c3c4c(c5c6ccccc6n2c5c31)C(=O)NC4` [staurosporin], the “effect on BAD phosphorylation” value with BAD phosphorylation was “inhibits BAD phosphorylation”.
In the case of `CNC[C@H](O)c1ccc(O)c(O)c1` [L-epinephrine, reference compound], the “induction of band-shift of endogenous BAD” value in assay [1] (non-transfected HeLa cells) is on record as “resulted in a new band-shift”. The “induction of band-shift (Ser155 phosphorylation) of HA-BAD S112A/S136A” value in assay [1] is recorded as “induced a significant band-shift; also recorded: resulted in the phosphorylation of this site”.
On to “ACTH: adrenocorticotropic hormone, GPCR ligand (SYSMEHFRWGKPVGKKRRPVKVYPNGAEDESAEAFPLEF; Corticotropin; UniProt P01189 138-176, looked up)”, for which the “induction of band-shift (Ser155 phosphorylation) of HA-BAD S112A/S136A” value in assay [1] is on record as “neither TK (FIG. 6(a), lane 3) nor ACTH (FIG. 6(b), lane 5) alone induces a similar band-shift”.
As for “BAD BH3-P: Synthetic BAD BH3 peptide, residues 143–168 of SEQ ID NO: 2, phosphorylated on Ser155 (AAQRYGRELRRM[pS]DEFEGSFKGLPRP; listed as Mus musculus)”, in the assay with GST-Bcl-XL (BAD BH3 peptide phosphorylated on Ser155), the “reduction of affinity for Bcl-XL” value is “greater than 100 fold”.
For the compound PDGF, the “induction of phosphorylation of endogenous BAD on Ser155” value in assay [2] (serum-starved Rat-1 fibroblasts, phospho-S155 antibody) is listed as “induced the phosphorylation of endogenous BAD on Ser155”. The “induction of band-shift of HA-BAD S112A/S136A” value in assay [2] was “induced a band-shift”. The “Ser155 phosphorylation following growth factor stimulation” value in assay [1] (HeLa cells) was “not detected”.
For `COc1cc2ncnc(Nc3cccc(Cl)c3)c2cc1OC` [AG1478, reference compound], the “effect on EGF-induced activation/phosphorylation of endogenous Akt” value in the assay with Akt is recorded as “blocked the phosphorylation of both”. Also, the “inhibition of EGF-induced phosphorylation of BAD on Ser155” value in assay [1] (serum-starved HeLa cells transfected with HA-BAD S155A (so in the source), pretreatment then EGF, anti-phospho-S155 blot) is recorded as “blocked the phosphorylation of both”.
On to “BAD S112A: mutant of shorter murine BAD, serine corresponding to Ser112 substituted with alanine; HA- or GST-tagged”, for which the “band-shift (phosphorylation) of expressed BAD construct in response to L-epinephrine” value in assay [1] (HeLa cells) was “significant band-shift”.
Regarding IGF-1: insulin-like growth factor 1, in assay [2], the “induction of band-shift of HA-BAD S112A/S136A” value is given as “induced a band-shift”. In assay [1] (HeLa cells), the “Ser155 phosphorylation following growth factor stimulation” value is “not detected”.
As for “BAD BH3: Synthetic BAD BH3 peptide, residues 143–168 of SEQ ID NO: 2, unphosphorylated on Ser155 (AAQRYGRELRRMSDEFEGSFKGLPRP; listed as Mus musculus)”, the “affinity of BAD BH3 peptide for Bcl-XL” value with GST-Bcl-XL (ability to block binding of GST-Bcl-XL to plate-bound BAK BH3 peptide, compared with BAK BH3 control peptide) is recorded as “affinity similar to the BAK BH3 control peptide”.
Consider `CCCCCCCCCCCCCC(=O)O[C@@H]1[C@@H](C)[C@@]2(O)[C@@H](C=C(CO)C[C@]3(O)C(=O)C(C)=C[C@@H]23)[C@@H]2C(C)(C)[C@]12OC(C)=O` [PMA], for which the “effect on BAD phosphorylation” value in the assay on BAD phosphorylation is given as “promotes BAD phosphorylation”.

(Values after US7193044B1, “Compounds and methods for regulating apoptosis, and methods of making and screening for compounds that regulate apoptosis” (Immunogen, Inc., priority 2000, dated 2007).)
